Data on 1 substance can be found in PMC9112550, “Optimization of the antimicrobial peptide Bac7 by deep mutational scanning” (BMC Biology, 2022).

In this assay the test system is E. coli TOP10. Nature of the assay: Single-strain growth experiments, intracellular peptide expression. It counts as cell-based. To be noted: negative control, expressed in E. coli TOP10. As for the experimental part: To assess the antimicrobial activity of single peptides when expressed intracellularly in E. coli TOP10, a monoclonal strain carrying the pBAD plasmid containing a single peptide gene was picked from solid media, incubated overnight, and inoculated into a fresh LB medium containing 0.3% (w/v) L-arabinose to a final OD of 0.01 into 96-well microtiter plate (Greiner). Growth of strains was recorded by measuring OD in a Tecan Infinite 200 PRO (Tecan, Männedorf, CH) for at least 4 h (37°C, 1.5 mm orbital shaking).

Regarding “HNP-1: inactive peptide HNP-1 expressed as the negative control”, the “activity on intracellular expression” value is “inactive”.
